Assays:
[1] = system: healthy recreational stimulant users; assay: single-dose crossover abuse potential study, placebo- and methylphenidate-controlled; assay type: in vivo, human
Text: A single-dose, randomized, double-blind, double-dummy, placebo- and active-controlled crossover study with 6 Treatment Visits per subject was undertaken. […] Subjects participated in a medical screening visit (Visit 1), one 4-day inpatient qualification phase (Visit 2), a treatment phase (Visits 3 to 8) consisting of six 5-day inpatient treatment visits, and a safety follow-up visit (Visit 9). Within 21 days of the screening visit, subjects were enrolled and attended a qualification phase in which they received either 60 mg methylphenidate or matching placebo in a randomized double-blind crossover manner. Dosing times were separated by approximately 24 hours to ensure that subjects could discriminate and show positive effects of the positive control.
Healthy female and male subjects aged 18 to 55 years (inclusive), who were recreational central nervous system (CNS) stimulant users with cocaine experience and who had passed the methylphenidate qualification phase, were randomized into the treatment.
Drug administration occurred on Day 1 of each treatment visit followed by pharmacodynamic (PD), pharmacokinetic (PK), and safety assessments conducted for up to 72 hours post-dose. […] Subjects were randomized to one of 6 treatment sequences according to a 6×6 William square design. The capsules received at each treatment visit (Visits 3 to 8) were identical. Serial pharmacodynamic and pharmacokinetic evaluations were taken at each treatment visit. Pharmacokinetic analysis was performed for dasotraline. Safety monitoring included regular assessments of vital signs, clinical laboratory tests, and adverse events (AEs), as well as continuous telemetry monitoring for at least 12 hours post-dose. Treatment visits were separated by a washout interval of at least 21 days (from the day of dosing). Subjects returned for the safety follow-up visit within approximately 14 days following the end of the last treatment visit.

adults with ADHD = assay type: in vivo, human
Experimental: The study consisted of three periods including Screening, Treatment, and Washout/Follow-up, as described below. Efficacy was evaluated using the ADHD Rating Scale Version IV (ADHD RS-IV) with adult prompts. Effects on cognition were evaluated using the clinical data repository system. Safety and tolerability were monitored throughout the study by collection of physical examinations, 12-lead electrocardiograms (ECG), vital signs, adverse events (AEs), hematology, blood chemistry, urinalysis, Insomnia Severity Index (ISI), and Columbia—Suicide Severity Rating Scale (C-SSRS).
Subjects self-administered the study drug at home on Days 1 through 28, at approximately the same time each night. After Day 1 subjects returned to the clinic on Days 8, 15, 22, and 29. Beginning at Day 1 and at every visit during the treatment period, the ADHD RS-IV, Wender-Reimherr Adult Attention Deficit Disorder Scale (WRAADDS), and clinical global impression—severity (CGI-S) were completed. The clinical data repository system was administered at Baseline, and Days 15 and 29.
At Days 36 and 43, subjects returned to the clinic and the ADHD RS-IV, WRAADDS, and CGI-S were completed. The clinical data repository system was completed on Day 43.

clinical = settings: human, in vivo
Experimental: Upon oral administration, methylphenidate is rapidly and completely absorbed from the gastrointestinal tract. Peak concentrations occur 1 to 2 hours after dose administration. […] When methylphenidate and cocaine are administered intravenously, their pharmacokinetics are quite similar—the percentage of each drug taken up by the brain and their rates of uptake are parallel, although the clearance from the brain of cocaine is faster than that of methylphenidate. The receptor-binding affinities for cocaine and methylphenidate are similar at the dopamine transporter in the basal ganglia and the striatum. […] Thus it appears that abuse may be related to a rapid surge in dopamine levels in the striatum. […] The consequence of the slow increase in dopamine is the absence of a “high”, and the consequence of the long T1/2 is that serum concentration gradually increases to a steady state.

DAT sites = target: T1, DAT sites (Homo sapiens, UniProt Q01959); assay: DAT site occupancy versus serum concentration (other studies, not shown); settings: in vivo
T1 construct: from tissue; host or cells: brain in vivo (my inference)
T1 sequence (Q01959 whole entry): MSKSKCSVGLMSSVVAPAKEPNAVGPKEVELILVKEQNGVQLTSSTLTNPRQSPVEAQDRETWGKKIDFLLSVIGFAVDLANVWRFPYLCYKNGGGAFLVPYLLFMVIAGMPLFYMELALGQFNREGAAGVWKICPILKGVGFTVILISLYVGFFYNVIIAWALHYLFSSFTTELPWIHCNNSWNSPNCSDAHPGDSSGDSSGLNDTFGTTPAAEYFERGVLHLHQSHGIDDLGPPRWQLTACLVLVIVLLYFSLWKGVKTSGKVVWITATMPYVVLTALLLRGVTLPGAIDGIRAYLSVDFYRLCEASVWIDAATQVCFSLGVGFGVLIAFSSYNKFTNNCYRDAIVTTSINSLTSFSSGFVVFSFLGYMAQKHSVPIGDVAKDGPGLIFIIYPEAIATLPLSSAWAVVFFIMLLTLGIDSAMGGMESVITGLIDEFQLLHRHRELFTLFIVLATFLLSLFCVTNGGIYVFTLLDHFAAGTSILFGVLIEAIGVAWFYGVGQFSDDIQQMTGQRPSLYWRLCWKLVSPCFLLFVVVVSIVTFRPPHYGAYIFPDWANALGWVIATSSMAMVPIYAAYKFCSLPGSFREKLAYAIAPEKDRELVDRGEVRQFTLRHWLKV

[2] = cited from earlier work
[3] = methylphenidate 40 mg and 80 mg, single dose

## N[C@@H]1CC[C@@H](c2ccc(Cl)c(Cl)c2)c2ccccc21 [dasotraline, (1R,4S)-4-(3,4-Dichlorophenyl)-1,2,3,4-tetrahydronaphthalen-1-amine]
[1]; 16 mg single dose
  differences from placebo on pharmacodynamic endpoints: very few statistically significant differences from placebo
[1]; dasotraline 8, 16 and 36 mg, single dose
  effects on most pharmacodynamic endpoints versus placebo: not significantly different from those of placebo
Adults with ADHD; 4 mg once daily
  anxiety leading to discontinuation: 2.6%
  computerized cognitive assessment battery: attention, working memory, episodic memory: no significant main effects
  insomnia leading to discontinuation: 2.6%
Adults with ADHD; 4 mg once daily versus placebo
  Wender-Reimherr ADD total score: did not improve enough to achieve statistical significance
  treatment-emergent adverse events (TEAEs), percentage: higher than the percentage of TEAEs in the placebo group
Adults with ADHD; 4 mg once daily versus placebo, week 4
  Wender-Reimherr subscore for the attention difficulties component: statistically significant improvement
Adults with ADHD; 4 mg once daily, 4 weeks
  serum concentration as a function of time: began to plateau by week four
Adults with ADHD; 4 mg once daily, to week four, p<0.05, FIG. 1
  ADHD RS-IV total score, LS mean change from baseline versus placebo: statistically different at weeks three and four
Adults with ADHD; 4 mg once daily, to week four, p<0.05, FIG. 2
  CGI-S score, LS mean change from baseline versus placebo: statistically different at weeks three and four
Adults with ADHD; 4 mg once daily, placebo group 2.7%
  incidence of adverse events rated as severe: 6%
Adults with ADHD; 4 mg/d
  mean concentrations at steady state: 6 ng/mL
Adults with ADHD; 4 mg/d, indicative of central inhibition of norepinephrine transporters
  circulating DHPG levels: decreased circulating DHPG levels
Adults with ADHD; oral dosage form containing 4 mg
  time of administration to statistically significant improvement in ADHD: about two to three
clinical; 4 mg
  Cmax: ~1.5 ng/mL
  Tmax: > 6 h
clinical; po
  Tmax: 10 to 12 h
  half-life: 47 to 77 h
DAT sites
  serum concentration at which 50% DAT site occupancy was achieved: 5 to 6 ng/mL

## COC(=O)C(c1ccccc1)C1CCCCN1 (stereo not shown) [methylphenidate]
[2]; in vivo
  pharmacokinetic half-life: approximately 2 hours
[2]; oral administration
  time of peak concentrations after dose administration: 1 to 2 h
[1]; [3]
  Drug Similarity Visual Analog Scale: strongly identified as a stimulant
  majority of pharmacodynamic endpoints incl. Drug Liking Visual Analog Scale, versus placebo: significant differences compared to placebo
  secondary stimulant measures: strong stimulant effects

Reference: patent publication US10076503B2 (priority 2014, dated 2018)
